27 molecules from PubChem BioAssay AID405 (SGCOxCompounds, 2006) can be followed below.

The target in the first experiment is Receptor-type tyrosine-protein phosphatase R (Homo sapiens) (UniProt Q15256). Nature of the experiment: inhibitors of receptor tyrosine phosphatase R – biochemical, recombinant human enzyme, DiFMUP fluorescence (AID 405). The conditions noted are these: recombinant PTPRR, DiFMUP fluorescence phosphatase assay.
Receptor-type tyrosine-protein phosphatase R (Homo sapiens), sequence (Q15256 whole entry, looked up): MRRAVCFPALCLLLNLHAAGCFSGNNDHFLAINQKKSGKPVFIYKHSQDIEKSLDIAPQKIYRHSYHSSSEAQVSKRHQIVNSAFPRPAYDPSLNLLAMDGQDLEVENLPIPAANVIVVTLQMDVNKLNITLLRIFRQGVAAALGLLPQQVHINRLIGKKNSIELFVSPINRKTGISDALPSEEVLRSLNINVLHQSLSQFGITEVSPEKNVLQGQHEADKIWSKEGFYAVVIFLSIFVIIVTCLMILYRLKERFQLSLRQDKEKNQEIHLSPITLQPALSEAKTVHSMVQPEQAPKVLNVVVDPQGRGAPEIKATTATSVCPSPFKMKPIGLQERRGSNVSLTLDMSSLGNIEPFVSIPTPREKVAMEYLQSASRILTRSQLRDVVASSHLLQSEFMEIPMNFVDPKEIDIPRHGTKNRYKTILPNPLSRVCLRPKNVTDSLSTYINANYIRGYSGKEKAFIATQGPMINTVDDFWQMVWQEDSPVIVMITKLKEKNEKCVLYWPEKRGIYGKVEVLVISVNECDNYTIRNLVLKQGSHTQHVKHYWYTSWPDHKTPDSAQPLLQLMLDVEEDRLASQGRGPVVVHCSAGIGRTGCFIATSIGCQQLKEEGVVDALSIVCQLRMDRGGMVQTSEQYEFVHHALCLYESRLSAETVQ
As a reminder, the IC50 is the midpoint of a concentration-inhibition curve. As to `Cc1ccc(C)n1-c1cc(C(=O)O)ccc1O`, the IC50 is 3.9 µM.

Consider `NC1=NC(=O)/C(=C/C=C/c2ccc([N+](=O)[O-])o2)S1`, for which the IC50 is 2.3 µM.

Consider `Cc1ccc2nc(-c3cc(N=Cc4cc(C(=O)O)ccc4O)ccc3O)[nH]c2c1`, for which the IC50 was 25.6 µM.

On to `Cc1ccc(C)n1-c1ccc(C(=O)O)cc1O`, for which the IC50 was 13.7 µM.

Regarding `COc1ccc(-c2nc3cc(N=Cc4cc(C(=O)O)ccc4O)ccc3o2)cc1`, the IC50 is 15.9 µM.

With `O=C(O)c1ccc(O)c(C=Nc2ccc3oc(-c4ccc(F)cc4Cl)nc3c2)c1`, the IC50 is 7.3 µM.

Turning to `CC(=O)c1ccc2c(c1)C1C=CCC1C(C(=O)O)N2` (configuration not stated), the IC50 is 6.7 µM.

The experiment is the same for the next values; noted with them: recombinant PTPRR, DiFMUP fluorescence phosphatase assay; at 50 µM; hits give high values.
By inhibition is commonly meant the share of the control response that was lost under treatment. For `O=C([O-])c1ccccn1.OO.OO.[K+].[K+].[O]=[V]`, the inhibition was 98%.

As to `Cn1nc(/C=C/c2ccccc2)nc2c(=O)n(C)c(=O)nc1-2`, the inhibition is 77%.

In the case of `O=C(O)c1ccc(O)c(C=Nc2ccc3oc(-c4cccc(Cl)c4Cl)nc3c2)c1`, the inhibition is 66%.

`O=C(O)c1ccc([O-])cn1.OO.OO.[K+].[K+].[O]=[V]`: the inhibition was 98%.

Consider `O=C(O)c1ccc(O)cn1.OO.[O]=[V]`, for which the inhibition was 95%.

For the molecule `CC(C)(c1ccc(NS(=O)(=O)C(F)(F)F)cc1)c1ccc(C(C)(C)c2ccc(NS(=O)(=O)C(F)(F)F)cc2)cc1`, the inhibition was 91%.

As to `O=C1NC(=S)NC(=O)C1=C/C=C/c1ccco1`, the inhibition was 100%.

On to `O=C1NC(=S)S/C1=C\C=C\c1ccc([N+](=O)[O-])o1`, for which the inhibition was 100%.

As to `CCn1nc(/C=C/c2ccccc2)[n+](=O)c2c(=O)n(C)c(=O)[nH]c21`, the inhibition was 63%.

On to `O=C(O)c1ccc(O)c(C=Nc2ccc3oc(-c4cc(Cl)ccc4Cl)nc3c2)c1`, for which the inhibition was 81%.

As for `COc1ccc(OC)c(N=Cc2cc(C(=O)O)ccc2O)c1`, the inhibition was 69%.

In the case of `CCn1nc(-c2ccc(Cl)cc2)nc2c(=O)n(C)c(=O)nc1-2`, the inhibition is 64%.

`O=C(O)c1ccc(O)c(/C=N/N(CCO)C2=NS(=O)(=O)c3ccccc32)c1`: the inhibition is 66%.

Consider `CN(N=O)c1ccc(O)c(O)c1`, for which the inhibition is 33%.

With `Cc1ccc2oc(-c3cccc(N=Cc4cc(C(=O)O)ccc4O)c3)nc2c1`, the inhibition was 51%.

In the case of `O=C(O)c1ccc(O)c(C=Nc2ccc3oc(-c4cccc(Cl)c4)nc3c2)c1`, the inhibition is 83%.

Consider `O=C(O)c1ccc(O)c(N2C(=O)Nc3ccccc3N2O)c1`, for which the inhibition is 76%.

For the molecule `O=C(O)c1ccc(O)c(C=Nc2cccc(-c3nc4ccccc4o3)c2)c1`, the inhibition is 58%.

Take `OO.OO.[K+].[O]=[V].c1ccc(-c2ccccn2)nc1`: the inhibition was 98%.

With `O=C(O)c1ccc(O)c(C=Nc2ccc3oc(-c4ccccc4)nc3c2)c1`, the inhibition was 66%.
